{
  "source": "paper PMC5640644",
  "about": "“HDX reveals the conformational dynamics of DNA sequence specific VDR co-activator interactions” (Nature Communications, 2017)",
  "biological_target": "T1, RXRα (Homo sapiens, UniProt P19793)",
  "T1 construct": "Flag; made in house; host or cells: baculovirus system",
  "T1 sequence (P19793 1-462)": "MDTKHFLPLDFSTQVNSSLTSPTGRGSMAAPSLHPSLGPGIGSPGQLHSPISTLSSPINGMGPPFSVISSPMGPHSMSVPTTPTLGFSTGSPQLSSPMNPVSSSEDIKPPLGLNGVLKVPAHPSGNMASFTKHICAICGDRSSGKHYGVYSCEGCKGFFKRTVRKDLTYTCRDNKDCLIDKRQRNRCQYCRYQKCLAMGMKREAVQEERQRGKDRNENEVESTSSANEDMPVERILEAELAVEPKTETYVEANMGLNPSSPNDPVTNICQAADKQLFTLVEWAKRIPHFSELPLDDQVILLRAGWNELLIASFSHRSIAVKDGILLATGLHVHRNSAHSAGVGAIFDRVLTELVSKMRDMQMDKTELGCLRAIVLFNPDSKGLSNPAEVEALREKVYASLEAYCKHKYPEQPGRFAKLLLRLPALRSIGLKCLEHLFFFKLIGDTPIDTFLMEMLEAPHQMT",
  "assay": "Differential HDX-MS of RXRα alone with and without ligand",
  "assay_type": "binding",
  "conditions": "without VDR",
  "method": "Full-length WT His-hVDR (Δ (151–190)) and WT Flag-h RXRα were expressed in a baculovirus system and purified by Ni-NTASEC or Flag-SEC, respectively. His-hSRC1 RID (627–786) variant 1 (NM_003743) was expressed in Escherichia coli (BL21 DE3) and purified using His-Trap (GE Healthcare). The final protein buffer was 50 mM Tris (pH 8.0), 150 mM NaCl, 10% glycerol and 2 mM DTT. The purity of each protein was > 95% and was verified using SDS-PAGE, western blot and MALDI MS.\nHDX-MS analysis: 10 μM of the apo protein was mixed with 1:10 molar excess of ligand and incubated for 2 h at 4 °C for complex formation before subjecting them to HDX analysis. […] The intensity weighted mean m/z centroid value of each peptide envelope was calculated and subsequently converted into a percentage of deuterium incorporation. […] In the absence of a fully deuterated control, 100% deuterium incorporation was calculated theoretically, and corrections for back-exchange were made on the basis of an estimated 70% deuterium recovery and accounting for 79.9% final deuterium concentration in the sample (1:5 dilution in D2O HDX buffer). Statistical significance for the differential HDX data is determined by an unpaired t-test for each time point, a procedure that is integrated into the HDX Workbench software. […]",
  "data": [
    {"smiles": "CCC(CC)(c1ccc(OCC(O)C(C)(C)C)c(C)c1)c1ccc(C(=O)N(C)CC(=O)O)c(C)c1", "note": "(stereo not shown) [Cmpd1, [(4-{1-ethyl-1-[4-(2-hydroxy-3,3-dimethyl-butoxy)-3-methyl-phenyl]-propyl}-2-methyl-benzoyl)-methyl-amino]-acetic acid]", "values": [
      {"measurement": "conformational changes of RXRα upon ligand binding (HDX)", "result": "no detectable conformational changes"}
    ]}
  ]
}
